# Assay results published in PMC6879718, “Mycobacterial OtsA Structures Unveil Substrate Preference Mechanism and Allosteric Regulation by 2-Oxoglutarate and 2-Phosphoglycerate” (mBio, 2019).
# Entries after “also recorded” stand apart in the source; their conditions may differ. Read-outs that look alike come from different tables or passages of the source.
# Assays:
# Format in all cases: biochemical, Mycobacterium thermoresistibile
# [1] = biological target: T1, M. thermoresistibile OtsA wild type (Mycolicibacterium thermoresistibile, UniProt G7CGT2); experiment: Effect of feedback inhibitors and allosteric regulators on OtsA activity (wild type)
# [2] = biological target: T2, M. thermoresistibile OtsA R213E (Mycolicibacterium thermoresistibile, UniProt G7CGT2, R213E); experiment: Effect of allosteric regulators on OtsA activity (R213E); conditions: R213E, G6P and ADP-glucose both 0.3 mM
# T2 sequence (G7CGT2 1-486 R213E): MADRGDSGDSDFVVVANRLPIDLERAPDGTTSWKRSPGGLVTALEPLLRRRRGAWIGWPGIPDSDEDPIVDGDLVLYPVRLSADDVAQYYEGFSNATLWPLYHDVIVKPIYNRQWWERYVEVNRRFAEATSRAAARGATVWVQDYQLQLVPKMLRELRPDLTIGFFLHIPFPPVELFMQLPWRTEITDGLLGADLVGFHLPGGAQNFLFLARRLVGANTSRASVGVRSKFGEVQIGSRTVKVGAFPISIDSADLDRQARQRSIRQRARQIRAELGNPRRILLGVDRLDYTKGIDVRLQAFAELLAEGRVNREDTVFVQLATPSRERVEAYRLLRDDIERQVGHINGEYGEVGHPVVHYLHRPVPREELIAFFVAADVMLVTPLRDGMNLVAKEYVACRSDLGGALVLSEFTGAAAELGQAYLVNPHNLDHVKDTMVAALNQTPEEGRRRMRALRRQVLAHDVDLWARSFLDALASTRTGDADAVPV
# Method: (§1) . All reagents used were obtained from Sigma-Aldrich. The enzymatic reactions (200-μl reaction mixture) were performed at 37°C, and the reaction mixtures contained 50 mM Tris (pH 7.5), 200 mM NaCl, 10 mM MgCl2, 50 mM KCl, 0.3 mM NADH, 2.5 mM phosphoenolpyruvate (PEP), 10 units of pyruvate kinase-lactate dehydrogenase, 0.1 μM enzyme, and various concentrations of G6P and NDP-glucose to determine kinetic parameters.
# (§2) […]. All experiments were performed in triplicate in a PHERAstar plate reader (BMG Labtech), and data were analyzed with Prism 5 (GraphPad Software).
# [3] = biological target: T3, M. thermoresistibile OtsA R384E (Mycolicibacterium thermoresistibile, UniProt G7CGT2, R384E); experiment: Effect of allosteric regulators on OtsA activity (R384E); conditions: R384E, G6P and ADP-glucose both 0.3 mM
# T3 sequence (G7CGT2 1-486 R384E): T2 sequence (G7CGT2 1-486 R213E)
# Method: as §1, §2
# [4] = biological target: T1, M. thermoresistibile OtsA wild type; experiment: OtsA kinetic parameters, continuous colorimetric coupled assay (wild type); conditions: ADP-glucose as the donor substrate
# [5] = wild type, G6P and ADP-glucose both 0.3 mM
compound,measurement,setting,value
"O=C(O)CCC(=O)C(=O)O [2OG, 2-oxoglutarate]","nH, Hill coefficient (95% confidence interval)",[1]; [5],1.4 (1.1–1.7)
same,IC50,"[1]; wild type, G6P and ADP-glucose both 0.3 mM, read-out: IC50 (95% confidence interval)",1800 µM
same,effect on OtsA activity,[2],abolished the strong response
same,"nH, Hill coefficient (95% confidence interval)",[2],0.26 (0.16–0.35)
same,IC50,[2]; read-out: IC50 (95% confidence interval),73000 µM
same,effect on OtsA activity,[3],strong activator
same,"nH, Hill coefficient (95% confidence interval)",[3],2.5 (1.4–3.5)
same,EC50,"[3]; read-out: EC50 (95% confidence interval), activation",700 µM
"O=C(O)C(CO)OP(=O)(O)O (centres unmarked) [2PG, 2-phosphoglyceric acid]",IC50,[1],2300 µM
same,"nH, Hill coefficient (95% confidence interval)",[1]; [5],2.0 (1.4–2.7)
same,"nH, Hill coefficient (95% confidence interval)",[2],0.51 (0.40–0.63)
same,effect on OtsA activity,[3],no effect
"O=S(=O)(O)CCNC1CCCCC1 [CHES, N-cyclohexyl-2-aminoethanesulfonic acid]",effect on OtsA activity,[1]; [5],no discernible impact on OtsA activity
O=C(CO)[C@@H](O)[C@H](O)[C@H](O)COP(=O)(O)O [F6P],effect on OtsA activity,[1],could not detect any effect; also recorded: no effect on the enzyme activity
"O=C[C@H](O)[C@@H](O)[C@H](O)[C@H](O)COP(=O)(O)O [Glucose-6-phosphate, glucose-6-phosphate]",use as acceptor substrate,[4],the only acceptor
"O=P(O)(O)OC[C@H]1O[C@H](O[C@H]2O[C@H](CO)[C@@H](O)[C@H](O)[C@H]2O)[C@H](O)[C@@H](O)[C@@H]1O [T6P, trehalose-6-phosphate]",effect on OtsA activity,[1]; [5],very low sensitivity
OC[C@H]1O[C@H](O[C@H]2O[C@H](CO)[C@@H](O)[C@H](O)[C@H]2O)[C@H](O)[C@@H](O)[C@@H]1O [Trehalose],IC50,[1],~24000 µM
